Measured values from patent publication US20060063784A1, “Method of using substituted pyrazolo [1,5-a] pyrimidines” (priority 2004, published 2006).
Read-outs that look alike come from different tables or passages of the source.

Tests used:
[1] = system: 80S14 (p21-deficient) cells; experiment: Cytotoxicity assay using isogenic cell lines: IC50 in 80S14 (p21-deficient) cells, SRB; type: cell-based, human
Method in brief: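 IC50 is the concentration halving proliferation relative to untreated controls, read from SRB absorbance (560 nm) after TCA fixation. Test agent dilutions (5 pM–50 μM or 170 pg/ml–10 μg/ml) were left on p21-deficient 80S14 cells (12,000/well, pre-incubated overnight) for 5 days at 37 °C.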

LoVo Colon cell line = experiment: Cytotoxicity assay using LoVo colon cell line, SRB; type: cell-based; conditions: read-out: Inhibition of LoVo
Method in brief: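 Growth inhibition read by sulforhodamine B after 4-day compound exposure at 37 °C. Colon LoVo cells plated at 4000 per well in RPMI/10% FBS a day earlier; doses ranged 5 pM-20 μM or 170 pg/ml-10 μg/ml. IC50 is the concentration halving proliferation versus untreated wells.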

[2] = Homo sapiens, 120 h, 80S14 (p21-deficient) cells, 5 days, SRB, class symbols, read-out: IC50 for 80S14
[3] = Homo sapiens, 96 h, Cellular activity in LoVo cell, 4 days incubation, SRB
[4] = Homo sapiens, 120 h, 80S14 p21-deficient cells, 5 days incubation, SRB, read-out: IC50 for 80SI4
[5] = Homo sapiens, 96 h, LoVo colon cells, 4 days incubation, SRB

Row | Compound | IC50 [1, 2] | IC50 (LoVo Colon cell line; [3]) | further results
1 | CC/C=C(\C)CNc1cccc(-c2ccnc3c(C(=O)c4cccs4)cnn23)c1 [Example 426, [7-(3-{[(2E)-2-Methylpent-2-enyl]amino}phenyl)pyrazolo[1,5-a]pyrimidin-3-yl](thien-2-yl)methanone] | 1 to 10 µM | 100 to 1000 nM | –
2 | CCN(CC)c1cccc(-c2ccnc3c(C(=O)c4cccs4)cnn23)c1 [Example 394, {7-[3-(Diethylamino)phenyl]pyrazolo[1,5-a]pyrimidin-3-yl}(thien-2-yl)methanone] | 1 to 10 µM | 100 to 1000 nM | –
3 | O=C(NCC1CCCCC1)Nc1cccc(-c2ccnc3c(C(=O)c4cccs4)cnn23)c1 [Example 160, N-(cyclohexylmethyl)-N′-{3-[3-(thien-2-ylcarbonyl)pyrazolo[1,5-a]pyrimidin-7-yl]phenyl}urea] | – | – | IC50 [1, 4]: 1 to 10 µM; IC50 (LoVo Colon cell line; [5]): 100 to 1000 nM
4 | O=C(O)CCc1ccc(-c2cccc(-c3ccnc4c(C(=O)c5cccs5)cnn34)c2)cc1 [Example 457, 3-{3′-[3-(Thien-2-ylcarbonyl)pyrazolo[1,5-a]pyrimidin-7-yl]-1,1′-biphenyl-4-yl}propanoic acid] | 10 to 50 µM | 100 to 1000 nM | –
5 | O=C(c1cccs1)c1cnn2c(-c3cccc(NCc4ccccc4)c3)ccnc12 [Example 349, {7-[3-(Benzylamino)phenyl]pyrazolo[1,5-a]pyrimidin-3-yl}(thien-2-yl)methanone] | 1 to 10 µM | 100 to 1000 nM | –
6 | CCC(C)C(C)CNc1cccc(-c2ccnc3c(C(=O)c4cccs4)cnn23)c1 (stereo not shown) [Example 430, (7-{3-[(2,3-Dimethylpentyl)amino]phenyl}pyrazolo[1,5-a]pyrimidin-3-yl)(thien-2-yl)methanone] | 1 to 10 µM | 100 to 1000 nM | –
7 | O=C(c1cccs1)c1cnn2c(-c3cccc(-c4ccn(CCN5CCCC5)n4)c3)ccnc12 [Example 520, (7-{3-[1-(2-Pyrrolidin-1-ylethyl)-1H-pyrazol-3-yl]phenyl}pyrazolo[1,5-a]pyrimidin-3-yl)(thien-2-yl)methanone] | 1 to 10 µM | 100 to 1000 nM | –
8 | CC/C=C/CNc1cccc(-c2ccnc3c(C(=O)c4cccs4)cnn23)c1 [Example 432, (7-{3-[(2E)-Pent-2-enylamino]phenyl}pyrazolo[1,5-a]pyrimidin-3-yl)(thien-2-yl)methanone] | < 1 µM | < 100 nM | –
9 | Cc1cc(-c2cccc(NC(=O)Cc3cccs3)c2)n2ncc(C(=O)c3cccs3)c2n1 [Example 205, N-{3-[5-methyl-3-(thien-2-ylcarbonyl)pyrazolo[1,5-a]pyrimidin-7-yl]phenyl}-2-thien-2-ylacetamide] | – | – | IC50 [1, 4]: 1 to 10 µM; IC50 (LoVo Colon cell line; [5]): 100 to 1000 nM
10 | Nc1ccc(-c2ccnc3c(C(=O)c4cccs4)cnn23)s1 [Example 345, [7-(5-Aminothien-2-yl)pyrazolo[1,5-a]pyrimidin-3-yl](thien-2-yl)methanone] | 10 to 50 µM | 1000 to 20000 nM | –
11 | O=C(c1cccs1)c1cnn2c(-c3cccc(NCc4ccccc4Cl)c3)ccnc12 [Example 368, (7-{3-[(2-Chlorobenzyl)amino]phenyl}pyrazolo[1,5-a]pyrimidin-3-yl)(thien-2-yl)methanone] | 1 to 10 µM | 100 to 1000 nM | –
12 | O=C(c1cccs1)c1cnn2c(-c3cccc(NC/C=C/c4ccc([N+](=O)[O-])cc4)c3)ccnc12 [Example 398, [7-(3-{[(2E)-3-(4-Nitrophenyl)prop-2-enyl]amino}phenyl)pyrazolo[1,5-a]pyrimidin-3-yl] (thien-2-yl)methanone] | 10 to 50 µM | 1000 to 20000 nM | –
13 | CC(C)CC(=O)Nc1cccc(-c2ccnc3c(-c4ccc(Oc5ccccc5)cc4)cnn23)c1 [Example 480, 3-Methyl-N-{3-[3-(4-phenoxyphenyl)pyrazolo[1,5-a]pyrimidin-7-yl]phenyl}butanamide] | 10 to 50 µM | 1000 to 20000 nM | –
14 | CCC(C)NC(=O)Nc1cccc(-c2ccnc3c(C(=O)c4cccs4)cnn23)c1 (stereo not shown) [Example 158, N-(sec-butyl)-N′-{3-[3-(thien-2-ylcarbonyl)pyrazolo[1,5-a]pyrimidin-7-yl]phenyl}urea] | – | – | IC50 [1, 4]: < 1 µM; IC50 (LoVo Colon cell line; [5]): < 100 nM
15 | O=C(CC1CCCCCC1)Nc1cccc(-c2ccnc3c(C(=O)c4cccs4)cnn23)c1 [Example 75, 2-cycloheptyl-N-{3-[3-(thien-2-ylcarbonyl)pyrazolo[1,5-a]pyrimidin-7-yl]phenyl}acetamide] | – | – | IC50 [1, 4]: < 1 µM; IC50 (LoVo Colon cell line; [5]): < 100 nM
16 | Cc1cc(-c2cccc(NC(=O)CC(C)C)c2)n2ncc(C(=O)c3cccs3)c2n1 [Example 201, 3-methyl-N-{3-[5-methyl-3-(thien-2-ylcarbonyl)pyrazolo[1,5-a]pyrimidin-7-yl]phenyl}butanamide] | – | – | IC50 [1, 4]: < 1 µM; IC50 (LoVo Colon cell line; [5]): < 100 nM

Row | Compound | IC50 [1, 2] | IC50 (LoVo Colon cell line; [3]) | further results
17 | (7-{3-[1-(Pyridin-2-ylmethyl)-1H-pyrazol-3-yl]phenyl}pyrazolo[1,5-a]pyrimidin-3-yl)(thien-2-yl)methanone [Example 516] | – | – | IC50 ([1]; 80S14 (p21-deficient) cells, 5 days, SRB, class symbols, read-out: IC50 for 80S14): < 1 µM; IC50 (LoVo Colon cell line; Cellular activity in LoVo cell, 4 days incubation, SRB): < 100 nM
18 | CC(C)CC(=O)Nc1cccc(-c2ccnc3c(-c4ccc(Cl)cc4)cnn23)c1 [Example 472, N-{3-[3-(4-Chlorophenyl)pyrazolo[1,5-a]pyrimidin-7-yl]phenyl}-3-methylbutanamide] | 10 to 50 µM | 1000 to 20000 nM | –
19 | O=C(CCCCl)Nc1cccc(-c2ccnc3c(C(=O)c4cccs4)cnn23)c1 [Example 346, 4-Chloro-N-{3-[3-(thien-2-ylcarbonyl)pyrazolo[1,5-a]pyrimidin-7-yl]phenyl}butanamide] | 1 to 10 µM | 100 to 1000 nM | –
20 | CC(C)CC(=O)Nc1ccc(Cl)c(-c2ccnc3c(C(=O)c4cccs4)cnn23)c1 [Example 339, N-{4-Chloro-3-[3-(thien-2-ylcarbonyl)pyrazolo[1,5-a]pyrimidin-7-yl]phenyl}-3-methylbutanamide] | – | – | IC50 ([1]; Homo sapiens, 80S14, 120 h, read-out: IC50 for 80S14 (uM)): 1 to 10 µM; IC50 (LoVo Colon cell line; Homo sapiens, LoVo, 96 h): 100 to 1000 nM
21 | Cc1ccccc1CNc1cccc(-c2ccnc3c(C(=O)c4cccs4)cnn23)c1 [Example 377, (7-{3-[(2-Methylbenzyl)amino]phenyl}pyrazolo[1,5-a]pyrimidin-3-yl)(thien-2-yl)methanone] | 1 to 10 µM | 100 to 1000 nM | –
22 | O=C(Nc1cccc(-c2ccnc3c(C(=O)c4cccs4)cnn23)c1)OCCCN1CCOCC1 [Example 425, 3-Morpholin-4-ylpropyl 3-[3-(thien-2-ylcarbonyl)pyrazolo[1,5-a]pyrimidin-7-yl]phenylcarbamate] | 1 to 10 µM | 100 to 1000 nM | –
23 | CCn1nnc(-c2cccc(-c3ccnc4c(C(=O)c5cccs5)cnn34)c2)n1 [Example 502, {7-[3-(2-Ethyl-2H-tetraazol-5-yl)phenyl]pyrazolo[1,5-a]pyrimidin-3-yl}(thien-2-yl)methanone] | 1 to 10 µM | 100 to 1000 nM | –
24 | CCCOC(=O)Nc1cccc(-c2c(C)cnc3c(C(=O)c4cccs4)cnn23)c1 [Example 208, propyl 3-[6-methyl-3-(thien-2-ylcarbonyl)pyrazolo[1,5-a]pyrimidin-7-yl]phenylcarbamate] | – | – | IC50 [1, 4]: 10 to 50 µM; IC50 (LoVo Colon cell line; [5]): 100 to 1000 nM
25 | CC(C)OC(=O)Nc1ccc(-c2ccnc3c(C(=O)c4cccs4)cnn23)s1 [Example 344, Isopropyl 5-[3-(thien-2-ylcarbonyl)pyrazolo[1,5-a]pyrimidin-7-yl]thien-2-ylcarbamate] | 1 to 10 µM | 1000 to 20000 nM | –
26 | O=C(c1nccs1)c1cnn2c(-c3cccc(NC(=O)C4CC4)c3)ccnc12 [Example 338, N-{3-[3-(1,3-Thiazol-2-ylcarbonyl)pyrazolo[1,5-a]pyrimidin-7-yl]phenyl}cyclopropanecarboxamide] | 1 to 10 µM | 100 to 1000 nM | –
27 | Cc1cc(-c2cccc(NC(=O)NC(C)C)c2)n2ncc(C(=O)c3cccs3)c2n1 [Example 207, N-isopropyl-N′-{3-[5-methyl-3-(thien-2-ylcarbonyl)pyrazolo[1,5-a]pyrimidin-7-yl]phenyl}urea] | – | – | IC50 [1, 4]: < 1 µM; IC50 (LoVo Colon cell line; [5]): 100 to 1000 nM
28 | O=C(NCC1CCCO1)Nc1cccc(-c2ccnc3c(C(=O)c4cccs4)cnn23)c1 (stereo not shown) [Example 163, N-(tetrahydrofuran-2-ylmethyl)-N′-{3-[3-(thien-2-ylcarbonyl)pyrazolo[1,5-a]pyrimidin-7-yl]phenyl}urea] | – | – | IC50 [1, 4]: < 1 µM; IC50 (LoVo Colon cell line; [5]): 100 to 1000 nM
29 | CC(C)CC(=O)Nc1cccc(-c2ccnc3c(-c4ccc5[nH]ccc5c4)cnn23)c1 [Example 466, N-{3-[3-(1H-Indol-5-yl)pyrazolo[1,5-a]pyrimidin-7-yl]phenyl}-3-methylbutanamide] | 1 to 10 µM | < 100 nM | –
30 | CCn1nnc(-c2cccc(-c3ccnc4c(-c5cc(C)cc(C)c5)cnn34)c2)n1 [Example 496, 3-(3,5-Dimethylphenyl)-7-[3-(2-ethyl-2H-tetrazol-5-yl)phenyl]pyrazolo[1,5-a]pyrimidine] | 1 to 10 µM | 100 to 1000 nM | –
31 | CC(C)CCC(=O)Nc1cccc(-c2ccnc3c(C(=O)c4cccs4)cnn23)c1 [Example 56, 4-methyl-N-{3-[3-(thien-2-ylcarbonyl)pyrazolo[1,5-a]pyrimidin-7-yl]phenyl}pentanamide] | – | – | IC50 ([1]; Homo sapiens, 80S14, 120 h, read-out: IC50 for 80SI4 (uM)): < 1 µM; IC50 (LoVo Colon cell line; Homo sapiens, LoVo, 96 h): < 100 nM
32 | O=C(Nc1ccc(-c2ccnc3c(C(=O)c4cccs4)cnn23)s1)c1ccccc1 [Example 361, N-{5-[3-(Thien-2-ylcarbonyl)pyrazolo[1,5-a]pyrimidin-7-yl]thien-2-yl}benzamide] | 10 to 50 µM | 1000 to 20000 nM | –
